Experimental findings from patent US20060135769A1, “Farnesyl transferase inhibiting 4-heterocyclyl-quinoline and quinazoline derivatives” (priority 2000, published 2006) are described below.

The melting point is the temperature of the solid-liquid transition.

In turn, `CC(=O)NC(c1ccc(Cl)cc1)(c1ccc2c(c1)c(-c1nc(-c3ccccc3)cs1)cc(=O)n2C)c1cncn1C` (centres unmarked) [Example B8, N-[(4-chlorophenyl)[1,2-dihydro-1-methyl-2-oxo-4-(4-phenyl-2-thiazolyl)-6-quinolinyl](1-methyl-1H-imidazol-5-yl)methyl]-acetamide] had a melting point of 244 °C. Compound `Cn1c(=O)cc(-c2nc(-c3ccccc3)cs2)c2cc(C(c3ccc(Cl)cc3)c3cnc(-c4ccccc4)[nH]3)ccc21` (centres unmarked) [Example B9 (F2), 6-[(4-chlorophenyl)(2-phenyl-1H-imidazol-5-yl)methyl]-1-methyl-4-(4-phenyl-2-thiazolyl)-2(1H)-quinolinone] displayed a melting point of 190 °C. Take `Cn1cncc1C(O)(c1ccc(Cl)cc1)c1ccc2[nH]c(=O)cc(-c3cccnc3)c2c1` (centres unmarked) [Example B3, 6-[(4-chlorophenyl)hydroxy(1-methyl-1H-imidazol-5-yl)methyl]-4-(3-pyridinyl)-2(1H)-quinolinone]: the melting point is > 250 °C. To `Cn1c(=O)cc(CCc2ccc(Cl)s2)c2cc(C(O)(c3ccc(Cl)cc3)c3cccnc3)ccc21` (centres unmarked) [Example B13, 6-[(4-chlorophenyl)hydroxy-3-pyridinylmethyl]-4-[2-(5-chloro-2-thienyl)ethyl]-1-methyl-2(1H)-quinolinone] belongs 110 °C; to `O=c1cc(-n2ccnc2)c2cc(C(c3ccc(Cl)cc3)n3ccnc3)ccc2[nH]1` (centres unmarked) [Example B1, 6-[(4-chlorophenyl)-1H-imidazol-1-ylmethyl]-4-(1H-imidazol-1-yl)-2(1H)-quinolinone], 242.3 °C.

The compound `Cn1cncc1C(N)(c1ccc(Cl)cc1)c1ccc2c(c1)c(-c1nc(-c3ccccc3)cs1)cc(=O)n2C` (centres unmarked) [Example B7, 6-[amino(4-chlorophenyl)(1-methyl-1H-imidazol-5-yl)methyl]-1-methyl-4-(4-phenyl-2-thiazolyl)-2(1H)-quinolinone] registered a melting point of 237 °C. To `Cn1cncc1C(O)(c1ccc(Cl)cc1)c1ccc2c(c1)c(-c1nc(-c3ccccc3)cs1)cc(=O)n2C` (centres unmarked) [Example B4, 6-[(4-chlorophenyl)hydroxy(1-methyl-1H-imidazol-5-yl)methyl]-1-methyl-4-(4-phenyl-2-thiazolyl)-2(1H)-quinolinone] belongs 200 °C; to `Cn1cncc1C(O)(c1ccc(Cl)cc1)c1ccc2c(c1)c(CCc1ccc(Cl)s1)cc(=O)n2C` (centres unmarked) [Example B10, 6-[(4-chlorophenyl)hydroxy(1-methyl-1H-imidazol-5-yl)methyl]-4-[2-(5-chloro-2-thienyl)ethyl]-1-methyl-2(1H)-quinolinone], 128 °C.

`Cn1cncc1C(c1ccc(Cl)cc1)c1ccc2c(c1)c(-c1nc(-c3ccccc3)cs1)cc(=O)n2C` (centres unmarked) [Example B6, 6-[(4-chlorophenyl)(1-methyl-1H-imidazol-5-yl)methyl]-1-methyl-4-(4-phenyl-2-thiazolyl)-2(1H)-quinolinone] showed a melting point of 171 °C.

For `Cn1cncc1C(O)(c1ccc(Cl)cc1)c1ccc2c(c1)c(-c1cccs1)cc(=O)n2C` (centres unmarked) [Example B2, 6-[(4-chlorophenyl)hydroxy(1-methyl-1H-imidazol-5-yl)methyl]-1-methyl-4-(2-thienyl)-2(1H)-quinolinone], the melting point was > 260 °C.

Take `Cn1c(=O)cc(CCc2ccc(Cl)s2)c2cc(C(N)(c3ccc(Cl)cc3)c3cccnc3)ccc21` (centres unmarked) [Example B14, 6-[amino(4-chlorophenyl)-3-pyridinylmethyl]-4-[2-(5-chloro-2-thienyl)ethyl]-1-methyl-2(1H)-quinolinone]: the melting point was 100 °C.
